Consider 20 compounds from patent US20100004277A1, “COMPOUNDS AND METHODS FOR MODULATING PROTEIN TRAFFICKING” (FoldRx Pharmaceuticals, Inc., priority 2006, published 2010).

Residues, ends and D or L forms follow the SMILES beside them. *: point of attachment. Cbz = O=C(OCc1ccccc1)*

The test system of assay [1] is sar1^ts mutant yeast strain. Put plainly: sar1^ts mutant growth rescue assay (OD600). Type of assay: cell-based. Conditions: 35° C., 72 hours, 0.05 to 50 μM. On the procedure: The sar1st mutant yeast strain (ATCC, Manassas, Va.) carries a temperature sensitive mutant allele of the SAR1 gene, which permits the strain to grow at 25° C., but undergo growth arrest at 35° C. or higher. Inactivation of the mutant Sar1^ts protein at 35° C. prevents the formation of transport vesicles at the ER, causing a block in ER to golgi trafficking (Saito et al. (1998) J. Biochem. (Tokyo) 124(4):816-823).
To identify compounds that rescue the sar1^ts mutant phenotype, the mutant strain was first grown at 25° C. in rich media overnight. The strain was then diluted to an OD600 of 0.004 in SC media with 2% glucose, and mixed with various dilutions of test compounds (0.05 to 50 μM) in SC media with 2% glucose. The cells were then incubated at 25° C. or 35° C. for 72 hours. Rescue of the sar1^ts mutant phenotype was scored as an increase in the OD600 (concentration of the yeast cells) cultured in the presence of a test compound as compared to cells cultured cultured in the absence of the test compound.

For assay [2], the system named is alpha-synuclein toxicity. The assay can be described thus: alpha-synuclein screen (rescue of cells from alpha-synuclein toxicity). Type of assay: cell-based.
Assay [3] deals with ypt1^ts cells. Put plainly: ypt1^ts mutant growth rescue assay (OD600). Type of assay: cell-based, yeast. Conditions: for rescue of ypt1^ts loss of function / restoring growth of ypt1^ts: 35° C. and 37° C. The source says:
The yeast mutant cell line ypt1^ts suppresses, in a temperature dependent fashion, the dominant-lethal phenotype of a mutant YPT1 allele (Schmitt et al. (1988) Cell 53:635-47). The yeast mutant cell line ypt1^ts contains an allele of YPT1 that has two point mutations: one that changes an asparagine at position 121 to a isoleucine (N121I) and another that changes an alanine at position 161 to a valine (A161V). The N121I mutation causes dominant lethality by itself, but lethality is suppressed by the second mutation, resulting in a recessive loss of function phenotype at the restrictive temperatures. ypt1^ts cells grow normally at temperatures up to 25° C., but are growth arrested at 37° C. (Id.).
Compounds that rescue cells from alpha-synuclein toxicity were screened to assess their ability to restore growth of ypt1^ts cells. The effect of the compounds was measured on ypt1^ts cells cultured at room temperature (permissive temperature), 37° C. (non-permissive temperature), and 35° C. (semi-permissive temperature).
To determine if the test compounds could rescue the ypt1^ts mutant phenotype, ypt1^ts cells were grown overnight in synthetic complete (SC) media supplementd with 2% glucose at room temperature. Log phase cells were diluted into SC 2% glucose media to an OD600 of 0.003. 100 μL of this culture was then aliquoted into each well of 96-well flat bottom microtiter plates. 1 μL of the test compounds dissolved in DMSO (at a concentration range from 5 mM-0.005 mM) or of DMSO alone was added to each well (50 uM-0.05 uM final concentration in 1% DMSO). Plates were mixed by vortexing and incubated at 35° C. and 37° C. Compound rescue of the ypt1^ts temperature sensitive defect was assessed by measuring the OD600 (optical density at 600 nm; cell growth) of the cultures. Plates incubated at 35° C. were measured at 24 and 40 hours incubation time while plates grown at 37° C. were measured after 40 hours of incubation.
Assays monitoring the rescue of ypt1^ts mutants were performed using a vehicle, a positive control (calcium), active compounds obtained from the alpha-synuclein screen (Cpd. I.1 and Cpd. II.1), alpha-synuclein-active analogs of Cpd. […] I.1 (Cpd. I.4 and Cpd. I.5).

Assay [4] concerns sec23-2^ts mutant yeast strain. The assay can be described thus: sec23^ts mutant growth rescue assay (OD600). Type of assay: cell-based. Conditions: 30° C., 24 hours, 0.05 to 50 μM. On the procedure: The sec23-2^ts mutant yeast strain carries a temperature sensitive mutant allele of the SEC23 gene, which permits the strain to grow normally at 25° C., but undergo growth arrest at 30° C. or higher. Inactivation of the Sec23 temperature-sensitive mutant protein at the restrictive temperature prevents the formation of transport vesicles at the ER resulting in a block in ER to golgi trafficking (see, e.g., Hicke et al. (1989) EMBO J. 8(6):1677-1684 and Castillo-Flores et al. (2005) J. Biol. Chem. 280(40):34033-34041).
To identify compounds that rescue the sec23^ts mutant phenotype, the mutant strain was first grown at 25° C. in rich media overnight. The strain was then diluted to an OD600 of 0.004 in SC media with 2% glucose, and mixed with various dilutions of test compounds compounds compounds (0.05 to 50 μM) in SC media with 2% glucose. The cells were then incubated at 25° C. or 30° C. for 24 hours. Rescue of the sec23^ts mutant phenotype was scored as an increase in the OD600 of cells cultured in the presence of the a compound as compared to cells cultured in the absence of the test compound.

The test system of assay [5] is ΔF508 CFTR. Put plainly: ΔF508 CFTR stabilization in CFBE cells, western blot. Type of assay: cell-based. Conditions: 16 hours, 37° C. On the procedure:
Selected compounds identified in the ypt1^ts screen were further tested for their ability to stabilize ΔF508 CTFR. CFBE cells, a cell line generated by transformation of cystic fibrosis tracheo-bronchial cells (ΔF508 CTFR homozygous) with SV40 (Bruscia et al. (2002) Gene Ther. 9(11):683-685), were cultured with 10 μM Cpd. I.3, 10 μM Cpd. II.2, or 10 μM VRT-325 for 16 hours at 37° C. (VRT-325 is described in, e.g., Van Goor et al. (2006) Am. J. Physiol. Lung Cell Mol. Physiol. 290:L1117-L1130). A population of cells was also cultured with the dimethyl sulfoxide (DMSO) solvent as a control.
Following incubation, cells were lysed, solubilized in Laemmli buffer, and subjected to SDS-PAGE. CFTR protein was visualized by western blotting using an antibody specific for CFTR. Culturing CFBE cells with Cpd. I.3 or Cpd. II.2 increased the amount of cellular ΔF508 CFTR protein (see band “B,” FIG. 3A). Cpd. I.3 and Cpd. […] The effects of Cpd. I.3 or Cpd.
Next, to test the effect of different concentrations of Cpd. I.3 and Cpd. II.2 on ΔF508 CFTR, a dose response experiment was performed. CFBE cells were grown at 37° C. for 16 hours in the presence of 1, 2.5, 5, or 10 μM Cpd. I.3 or Cpd. II.2. Following incubation, lysates were prepared from the various treated cell populations, the lysates solubilized in Laemmli buffer, and subjected to SDS-PAGE. The relative amounts of glysosylated (band “C”) and unglycosylated (band “B”) ΔF508 CFTR protein were visualized by western blotting as above (FIGS. 4A and 4C). The band intensities were quantitated by scanning and densitometry. […] I.3 (FIG. 4B) and Cpd. II.2 (FIG. 4D), respectively.
Background: Immunoblotting shows a protein as a band on a membrane.

Take `CCC(=O)/N=C(\N)Nc1nc2ccccc2s1` [Cpd. I.1]: the “rescue of the sar1^ts mutant phenotype” value in assay [1] was “rescue”. Further, the “activity in the alpha-synuclein screen” value in assay [2] was “active”. The “rescue of ypt1^ts loss of function / restoring growth of ypt1^ts” value in assay [3] was “rescue”. The “rescue of the sec23^ts mutant phenotype” value in assay [4] is listed as “rescue”.
Consider `N=C(NC(=O)[C@H]1C[C@@H]1c1ccccc1)Nc1nc2ccccc2o1` [Cpd. I.2], for which the “activity in the alpha-synuclein screen” value in assay [2] was “active”. Also, the “rescue of ypt1^ts loss of function / restoring growth of ypt1^ts” value in assay [3] is given as “rescued”.
The matching figures for `N/C(=N\C(=O)C1CCCCC1)Nc1nc2ccccc2o1` [Cpd. I.4]: “inactive” and “did not”.
Take `N=C(NC(=O)[C@@H]1C[C@@H]1c1ccccc1)Nc1nc2ccccc2o1` [Cpd. I.5]: the “rescue of the sar1^ts mutant phenotype” value in assay [1] was “rescue”. The “activity in the alpha-synuclein screen” value in assay [2] was “inactive”. In addition, in assay [3], the “rescue of ypt1^ts loss of function / restoring growth of ypt1^ts” value is on record as “did not”. Besides, the “rescue of the sec23^ts mutant phenotype” value in assay [4] is “not detected”.
In the case of `N/C(=N\C(=O)CCc1ccco1)Nc1nc2ccccc2o1` [Cpd. I.6], in assay [1], the “rescue of the sar1^ts mutant phenotype” value is “rescue”. Moreover, in assay [4], the “rescue of the sec23^ts mutant phenotype” value is given as “not detected”.
For `O=C1CC(c2ccccc2)c2ccc3ccccc3c2N1` (stereo not drawn) [Cpd. II.1], the “rescue of the sar1^ts mutant phenotype” value in assay [1] was “not detected”. In addition, the “activity in the alpha-synuclein screen” value in assay [2] is reported as “active”. Moreover, in assay [3], the “rescue of ypt1^ts loss of function / restoring growth of ypt1^ts” value is recorded as “rescue”. Also, the “rescue of the sec23^ts mutant phenotype” value in assay [4] is recorded as “not detected”.
Regarding `O=C1CC(c2cccc(Cl)c2)c2ccc3c(c2N1)CCC3` (stereo not drawn) [Cpd. II.2], in assay [1], the “rescue of the sar1^ts mutant phenotype” value is given as “not detected”. Also, the “effects on stabilizing ΔF508 CFTR compared with VRT-325” value in assay [5] (10 μM) is “comparable or better”. In assay [5] (10 μM, vs DMSO), the “amount of cellular ΔF508 CFTR protein (band B)” value is “increased” and the “amount of the glycosylated form of ΔF508 CFTR (band C)” value is recorded as “increased”. The same compound came in with a concentration at which efficacy reached a maximum (dose response curves from western blot) in assay [5] of 2.5 to 5 µM. Also, the “amount of glycosylated and unglycosylated ΔF508 CFTR proteins compared to absence of compound” value in assay [5] (all concentrations tested (1-10 μM)) is reported as “increase”. In addition, the “rescue of the sec23^ts mutant phenotype” value in assay [4] is given as “not detected”.
On to `O=C1CC(c2cccc(Cl)c2)c2cc3c(cc2N1)CCC3` (stereo not drawn) [Cpd. II.3], for which the “rescue of the ypt1^ts mutant phenotype” value in assay [3] (5.0 μM, 37° C., 40 hours) is reported as “rescued”.
Take `COc1ccc(OC)c(C2CC(=O)Nc3c2ccc2ccccc32)c1` (stereo not drawn) [II.12]: in assay [1], the “rescue of the sar1^ts mutant phenotype” value is reported as “not detected”. In addition, in assay [4], the “rescue of the sec23^ts mutant phenotype” value is reported as “not detected”.
Consider `O=C1CC(c2cccc(Cl)c2)c2ccc(-c3ccccc3)cc2N1` (stereo not drawn) [II.27], for which the “rescue of the sar1^ts mutant phenotype” value in assay [1] was “not detected”. In addition, the “rescue of the sec23^ts mutant phenotype” value in assay [4] is given as “not detected”.
Regarding `O=C1CC(c2cccc(Cl)c2)c2cc3c4c(cccc4c2N1)CC3` (stereo not drawn) [II.57], in assay [1], the “rescue of the sar1^ts mutant phenotype” value is “not detected”. The “rescue of the sec23^ts mutant phenotype” value in assay [4] is given as “not detected”.
With `C#Cc1cccc(C2CC(=O)Nc3c2ccc2c3CCC2)c1` (stereo not drawn) [II.59], the “rescue of the sar1^ts mutant phenotype” value in assay [1] is on record as “not detected”. Also, in assay [4], the “rescue of the sec23^ts mutant phenotype” value is given as “not detected”.
`CC(C)C[C@@H](C=O)NC(=O)[C@H](CC(C)C)NC(=O)[C@H](CC(C)C)NC(=O)OCc1ccccc1` [MG132, reference compound] (Cbz-Leu-Leu-Leu-aldehyde): the “rescue of ypt1^ts loss of function” value in assay [3] (37° C., 40 hours, range 0.05-50 μM, intermediate concentrations) was “rescued”.
Turning to `COc1ccc(S(=O)(=O)N2CCN(C(C)c3nc(OC4CCCCC4)c4ccccc4n3)CC2)cc1` (stereo not drawn) [VRT-325, reference compound], the “stabilization of ΔF508 CFTR protein in CFBE cells” value in assay [5] (10 μM) is on record as “stabilization”.
As to `[Ca+2]` [calcium, reference compound], the “rescue of ypt1^ts loss of function / restoring growth of ypt1^ts” value in assay [3] was “rescued”.
Regarding `C[C@@H]1C[C@@H]([C@H](O)CC2CC(=O)NC(=O)C2)C(=O)[C@@H](C)C1` [cycloheximide, reference compound], the “rescue of the sar1^ts mutant phenotype” value in assay [1] is recorded as “rescue”. For the same compound, the “rescue of ypt1^ts loss of function / restoring growth of ypt1^ts” value in assay [3] is “effective”. In assay [4], the “rescue of the sec23^ts mutant phenotype” value was “not detected”.
The matching figures for `COc1cccc2c1C(=O)c1c(O)c3c(c(O)c1C2=O)C[C@@](O)(C(=O)CO)C[C@@H]3O[C@H]1C[C@H](N)[C@H](O)[C@H](C)O1` [doxorubicin, reference compound]: “not detected”, “effective” and “not detected”.
As to `CO[C@@H]1[C@@H](OC(N)=O)[C@@H](O)[C@H](Oc2ccc3c(O)c(NC(=O)c4ccc(O)c(CC=C(C)C)c4)c(=O)oc3c2C)OC1(C)C` [novobiocin, reference compound], the “rescue of ypt1^ts loss of function / restoring growth of ypt1^ts” value in assay [3] is given as “effective”.
Regarding aureobasidin [reference compound], in assay [1], the “rescue of the sar1^ts mutant phenotype” value was “not detected”. Also, in assay [3], the “rescue of ypt1^ts loss of function / restoring growth of ypt1^ts” value is given as “effective”. Also, in assay [4], the “rescue of the sec23^ts mutant phenotype” value is listed as “not detected”.
As to tunicamycin [reference compound], the “rescue of ypt1^ts loss of function / restoring growth of ypt1^ts” value in assay [3] was “effective”.
